Values of other authors as cited in publication PMC6311893, “Computational prediction of plasma protein binding of cyclic peptides from small molecule experimental data using sparse modeling techniques” (BMC Bioinformatics, 2018).
Read-outs that look alike come from different tables or passages of the source.

Test system: plasma protein
Settings: cited from earlier work
[1] = fraction bound to plasma protein, small molecule dataset, sheet 1-SM, ref Ingle et al.
[2] = fraction bound to plasma protein, small molecule dataset, sheet 1-SM (Set Dte = test, Dtr = training), ref Ingle et al.
[3] = fraction bound to plasma protein, small molecule dataset, sheet 1-SM, Set Dtr, ref Ingle et al.

## O=C(O)c1ccc(O)cc1 [p-hydroxybenzoic acid]
[1]
  PPB (fb): 0.35

## CCC(OC(C)=O)C(CC(C)N(C)C)(c1ccccc1)c1ccccc1 (centres unmarked) [laam]
plasma
  PPB (fb): 0.8

## O=C1CN=C(c2ccccc2)c2cc(Cl)ccc2N1CC1CC1 [prazepam]
plasma
  PPB (fb): 0.97

## C[C@H](Cn1cnc2c(N)ncnc21)OCP(=O)(O)O [Tenofovir]
[2]
  PPB (fb): 0.07

## CCCOC(=O)Cc1ccc(OCC(=O)N(CC)CC)c(OC)c1 [propanidid]
plasma
  PPB (fb): 0.75

## CC(C)(C#N)c1cc(Cn2cncn2)cc(C(C)(C)C#N)c1 [anastrozole]
[2]
  PPB (fb): 0.44

## CCC1(C)CC(=O)NC1=O (centres unmarked) [ethosuximide]
[1]
  PPB (fb): 0

## CC[C@@]1(O)C[C@H](O[C@H]2C[C@H](N(C)C)[C@H](O[C@H]3C[C@H](O)[C@H](O[C@H]4CCC(=O)[C@H](C)O4)[C@H](C)O3)[C@H](C)O2)c2c(cc3c(c2O)C(=O)c2c(O)cccc2C3=O)[C@H]1C(=O)OC [aclarubicin]
plasma
  PPB (fb): 0.43

## O=C(O)Cc1ccccc1Oc1ccc(Cl)cc1Cl [fenclofenac]
[1]
  PPB (fb): 0.99

## NC[C@H](O)c1ccc(O)c(O)c1 [norepinephrine]
[1]
  PPB (fb): 0.5

## CCc1c2c(nc3ccc(OC(=O)N4CCC(N5CCCCC5)CC4)cc13)-c1cc3c(c(=O)n1C2)COC(=O)[C@]3(O)CC [Irinotecan]
[2]
  PPB (fb): 0.57

## dicoumarol
plasma
  PPB (fb): 0.99

## Cc1ccc(S(=O)(=O)NC(=O)NN2CC3CCCC3C2)cc1 (centres unmarked) [gliclazide]
[1]
  PPB (fb): 0.91

## CCOC(=O)C1(c2ccccc2)CCN(CCC(O)c2ccccc2)CC1 (centres unmarked) [phenoperidine]
plasma
  PPB (fb): 0.8

## CCN[C@@H](C)Cc1cccc(C(F)(F)F)c1 [Dexfenfluramine]
plasma
  PPB (fb): 0.34

## O=C(O)[C@H]1O[C@@H](Oc2cc3oc(-c4ccc(O)cc4)cc(=O)c3c(O)c2O)[C@H](O)[C@@H](O)[C@@H]1O [scutellarin]
  PPB (fb): 0.82

## C=C1/C(=C\C=C2/CCC[C@]3(C)[C@@H]([C@H](C)CCCC(C)(C)O)CC[C@@H]23)C[C@@H](O)C[C@@H]1O [calcitriol]
  PPB (fb): 0.95

## CC[C@]1(O)C[C@H]2CN(CCc3c([nH]c4ccccc34)[C@@](C(=O)OC)(c3cc4c(cc3OC)N(C=O)[C@H]3[C@@](O)(C(=O)OC)[C@H](OC(C)=O)[C@]5(CC)C=CCN6CC[C@]43[C@@H]65)C2)C1 [Vincristine]
[1]
  PPB (fb): 0.6

## COc1cc2c(cc1OC)C1CC(=O)C(CC(C)C)CN1CC2 (centres unmarked) [tetrabenazine]
[1]
  PPB (fb): 0.85

## O=C(O)c1cn(-c2cccc(C(F)(F)F)c2)c2cc(N3CCNCC3)c(F)cc2c1=O [3b(m-CF3)]
[2]
  PPB (fb): 0.62

## CCN(CC)C(=O)N[C@H]1C=C2c3cccc4[nH]cc(c34)C[C@H]2N(C)C1 [lisuride]
plasma
  PPB (fb): 0.7

## Cc1ncc2n1-c1ccc(Cl)cc1C(c1ccccc1F)=NC2 [Midazolam]
plasma
  PPB (fb): 0.97

## C[C@@H]1O[C@@H](O[C@@H]2C=C3CC[C@@H]4[C@H](CC[C@]5(C)[C@@H](c6ccc(=O)oc6)CC[C@]45O)[C@@]3(C)CC2)[C@H](O)[C@H](O)[C@H]1O [proscillaridin]
plasma
  PPB (fb): 0.85

## Nc1ccn(C[C@@H](CO)OCP(=O)(O)O)c(=O)n1 [Cidofovir]
[3]
  PPB (fb): 0.02

## Cc1ncc([N+](=O)[O-])n1CC(O)CCl (centres unmarked) [ornidazole]
[1]
  PPB (fb): 0.15

## O=C(O)c1cn(-c2cccc(O)c2)c2cc(N3CCNCC3)c(F)cc2c1=O [8b(m-OH)]
[2]
  PPB (fb): 0.35

## Nc1ccn([C@@H]2O[C@H](CO)[C@@H](O)C2(F)F)c(=O)n1 [Gemcitabine]
[3]
  PPB (fb): 0.01

## Cc1nnc2n1-c1ccc(Cl)cc1C(c1ccccc1)=NC2 [Alprazolam]
plasma
  PPB (fb): 0.72

## CCC(=O)OCC(=O)[C@@]1(OC(=O)CC)[C@@H](C)C[C@H]2[C@@H]3CCC4=CC(=O)C=C[C@]4(C)[C@@]3(Cl)[C@@H](O)C[C@@]21C [Beclomethasone dipropionate]
[3]
  PPB (fb): 0.87

## CCCOC(C(=O)OC1CCN(C)CC1)(c1ccccc1)c1ccccc1 [propiverine]
[1]
  PPB (fb): 0.9

## COc1c(C)c2c(c(O)c1C/C=C(\C)CCC(=O)OCCN1CCOCC1)C(=O)OC2 [Mycophenolate mofetil]
[1]
  PPB (fb): 0.97

## flurazepam
plasma
  PPB (fb): 0.97

## CNc1nc(N(C)C)nc(N(C)C)n1 [pentamethylmelamine]
[1]
  PPB (fb): 0.75

## CCOC(=O)[C@H](CCc1ccccc1)N[C@@H](C)C(=O)N1Cc2ccccc2C[C@H]1C(=O)O [quinapril]
[1]
  PPB (fb): 0.97

## COc1cnc2ccccc2c1C(=O)NC1C(=O)N2C1SC(C)(C)C2C(=O)O (centres unmarked) [penicillin76]
[1]
  PPB (fb): 0.57

## NC(=O)c1ncn([C@@H]2O[C@H](CO)[C@@H](O)[C@H]2O)n1 [Ribavirin]
[1]
  PPB (fb): 0.02

## CCOC(=O)NC1=C(N2CC2)C(=O)C(NC(=O)OCC)=C(N2CC2)C1=O [diaziquone]
[2]
  PPB (fb): 0.79

## CC1(C)S[C@@H]2[C@H](NC(=O)C(c3ccccc3)S(=O)(=O)O)C(=O)N2[C@H]1C(=O)O (some centres unmarked) [Sulbenicillin]
[2]
  PPB (fb): 0.5

## O=C(O)COC(=O)Cc1ccccc1Nc1c(Cl)cccc1Cl [aceclofenac]
[2]
  PPB (fb): 0.99

## CCN(CCCCOC(=O)c1ccc(OC)c(OC)c1)C(C)Cc1ccc(OC)cc1 (centres unmarked) [mebeverine]
[1]
  PPB (fb): 0.75

## CC1(C)SC2C(NC(=O)C(N)c3ccc(Cl)cc3)C(=O)N2C1C(=O)O (centres unmarked) [penicillin28]
[1]
  PPB (fb): 0.55

## COc1cc(NS(C)(=O)=O)ccc1Nc1c2ccccc2nc2ccccc12 [Amsacrine]
[3]
  PPB (fb): 0.98

## Nc1ccc(S(=O)(=O)Nc2ncccn2)cc1 [Sulfadiazine]
[1]
  PPB (fb): 0.45

## O=C1[C@@H]2[C@H]3CC[C@H](C3)[C@@H]2C(=O)N1CCCCN1CCN(c2ncccn2)CC1 [tandospirone]
[1]
  PPB (fb): 0.3

## CCC(=O)C(CC(C)N(C)C)(c1ccccc1)c1ccccc1 (centres unmarked) [Methadone]
plasma
  PPB (fb): 0.84

## O=P(O)(O)C(O)(Cn1ccnc1)P(=O)(O)O [Zoledronic Acid]
[1]
  PPB (fb): 0.22

## CN(C)CCC(c1ccc(Br)cc1)c1ccccn1 (centres unmarked) [brompheniramine]
[2]
  PPB (fb): 0.72

## C=CC[C@@H]1/C=C(\C)C[C@H](C)C[C@H](OC)[C@H]2O[C@@](O)(C(=O)C(=O)N3CCCC[C@H]3C(=O)O[C@H](/C(C)=C/[C@@H]3CC[C@@H](O)[C@H](OC)C3)[C@H](C)[C@@H](O)CC1=O)[C@H](C)C[C@@H]2OC [Tacrolimus]
[1]
  PPB (fb): 0.99

## CNCC[C@@H](Oc1ccccc1C)c1ccccc1 [Atomoxetine]
[3]
  PPB (fb): 0.97

## CCc1cc2c(s1)-n1c(C)nnc1CN=C2c1ccccc1Cl [etizolam]
plasma
  PPB (fb): 0.93

## C=CC1(O)CN2CCC1CC2C(O)c1ccnc2ccc(OC)cc12 (centres unmarked) [3-Hydroxy Quinidine]
plasma
  PPB (fb): 0.6

## methacycline
plasma
  PPB (fb): 0.84

## OCCN1CCN(CC/C=C2/c3ccccc3Sc3ccc(Cl)cc32)CC1 [zuclopenthixol]
[3]
  PPB (fb): 0.98

## COc1c(N2C[C@@H]3CCCN[C@@H]3C2)c(F)cc2c(=O)c(C(=O)O)cn(C3CC3)c12 [Moxifloxacin]
[3]
  PPB (fb): 0.45

## Oc1ccc(C2CNCCc3c2cc(O)c(O)c3Cl)cc1 (centres unmarked) [fenoldopam]
[1]
  PPB (fb): 0.88

## CCCc1oc(CCC(=O)O)c(C(=O)O)c1C
[2]
  PPB (fb): 0.99

## N=C(N)c1ccc(CNC(=O)[C@@H]2CCN2C(=O)[C@H](NCC(=O)O)C2CCCCC2)cc1 [Melagatran]
[3]
  PPB (fb): 0.07

## C[C@H]1O[C@@H](O[C@H]2CC[C@@]3(C)[C@H](CC[C@@H]4[C@@H]3C[C@@H](O)[C@]3(C)[C@@H](C5=CC(=O)OC5)CC[C@]43O)C2)C[C@H](O)[C@@H]1O[C@H]1C[C@H](O)[C@H](O[C@H]2C[C@H](O)[C@H](O[C@@H]3O[C@H](CO)[C@@H](O)[C@H](O)[C@H]3O)[C@@H](C)O2)[C@@H](C)O1 [deslanoside]
plasma
  PPB (fb): 0.2

## COCCc1ccc(OCC(O)CNC(C)C)cc1 (centres unmarked) [Metoprolol]
[2]
  PPB (fb): 0.11

## CCCNC(C)C(=O)Nc1ccccc1C (centres unmarked) [Prilocaine]
[3]
  PPB (fb): 0.39

## CCOc1ccc(NC(C)=O)cc1 [Phenacetin]
[3]
  PPB (fb): 0.41

## CSc1ccc2c(c1)N(CCC1CCCCN1C)c1ccccc1S2 (centres unmarked) [thioridazine]
[1]
  PPB (fb): 0.98

## COc1ccc2cc1Oc1cc3c(cc1OC)CC[N+](C)(C)[C@H]3Cc1ccc(cc1)Oc1c(OC)c(OC)cc3c1[C@@H](C2)[N+](C)(C)CC3 [Metocurine]
plasma
  PPB (fb): 0.35

## CCN(CC)CCNC(=O)c1cc(Cl)c(N)cc1OC [Metoclopramide]
[2]
  PPB (fb): 0.37

## CN1CCN(CCCCN2C(=O)CN(/N=C/c3ccc(-c4ccc(Cl)cc4)o3)C2=O)CC1 [Azimilide]
[3]
  PPB (fb): 0.94

## OC(c1cc(C(F)(F)F)nc2c(C(F)(F)F)cccc12)C1CCCCN1 (centres unmarked) [mefloquine]
[1]
  PPB (fb): 0.97

## Fc1ccccc1C1=NCC(=S)N(CC(F)(F)F)c2ccc(Cl)cc21 [quazepam]
plasma
  PPB (fb): 0.95

## CC1(C)SC2C(NC(=O)C(Br)c3ccccc3)C(=O)N2C1C(=O)O (centres unmarked) [penicillin21]
[2]
  PPB (fb): 0.82

## COc1cnc(NS(=O)(=O)c2ccc(N)cc2)nc1 [sulfametoxydiazine]
[1]
  PPB (fb): 0.83

## CCN1CCC[C@H]1CNC(=O)c1c(OC)ccc(Br)c1OC [Remoxipride]
[1]
  PPB (fb): 0.79

## COc1cc2nc(N(C)CCCNC(=O)C3CCCO3)nc(N)c2cc1OC (centres unmarked) [alfuzosin]
[2]
  PPB (fb): 0.9
